# Source: patent US12590067B2, “Herbicidal cyclohexanedione derivatives” (SYNGENTA CROP PROTECTION AG, priority 2019, dated 2026)
# Columns and labels:
# Assay in all cases: Glasshouse herbicidal test, pre- and post-emergence, percentage damage to the plant
# Type in all cases: in vivo
# [1] = tested on: Alopecurus myosuroides (ALOMY); conditions: 250 g/h, evaluated after 13 days; for ALOMY POST percentage damage caused to the plant (five-point scale): post-emergence; for ALOMY PRE percentage damage caused to the plant (five-point scale): pre-emergence
# Protocol: (§1) Seeds of a variety of test species are sown in standard soil in pots (Lolium perenne (LOLPE), Setaria faberi (SETFA), Alopecurus myosuroides (ALOMY), Echinochloa crus-galli (ECHCG), Avena fatua (AVEFA)). After cultivation for one day (pre-emergence) or after 8 days cultivation (post-emergence) under controlled conditions in a glasshouse (at 24/16° C., day/night; 14 hours light; 65% humidity), the plants are sprayed with an aqueous spray solution derived from the formulation of the technical active ingredient in acetone/water (50:50) solution containing 0.5% Tween 20 (polyoxyethelyene sorbitan monolaurate, CAS RN 9005-64-5). Compounds are applied at 250 g/h. The test plants are then grown in a glasshouse under controlled conditions in a glasshouse (at 24/16° C., day/night; 14 hours light; 65% humidity) and watered twice daily. After 13 days for pre and post-emergence, the test is evaluated for the percentage damage caused to the plant. The biological activities are shown in the following table on a five-point scale (5=80-100%; 4=60-79%; 3=40-59%; 2=20-39%; 1=0-19%).
# Avena fatua (AVEFA) = conditions: 250 g/h, evaluated after 13 days; for AVEFA POST percentage damage caused to the plant (five-point scale): post-emergence; for AVEFA PRE percentage damage caused to the plant (five-point scale): pre-emergence
# Protocol: as §1
# Setaria faberi (SETFA) = conditions: 250 g/h, evaluated after 13 days; for SETFA POST percentage damage caused to the plant (five-point scale): post-emergence; for SETFA PRE percentage damage caused to the plant (five-point scale): pre-emergence
# Protocol: as §1
# Lolium perenne (LOLPE) = conditions: 250 g/h, evaluated after 13 days; for LOLPE POST percentage damage caused to the plant (five-point scale): post-emergence; for LOLPE PRE percentage damage caused to the plant (five-point scale): pre-emergence
# Protocol: as §1
# [2] = tested on: Echinochloa crus-galli (ECHCG); conditions: 250 g/h, evaluated after 13 days; for ECHCG POST percentage damage caused to the plant (five-point scale): post-emergence; for ECHCG PRE percentage damage caused to the plant (five-point scale): pre-emergence
# Protocol: as §1
SMILES,ALOMY POST percentage damage caused to the plant (five-point scale) [1],ALOMY PRE percentage damage caused to the plant (five-point scale) [1],AVEFA POST percentage damage caused to the plant (five-point scale) (Avena fatua (AVEFA)),AVEFA PRE percentage damage caused to the plant (five-point scale) (Avena fatua (AVEFA)),SETFA POST percentage damage caused to the plant (five-point scale) (Setaria faberi (SETFA)),SETFA PRE percentage damage caused to the plant (five-point scale) (Setaria faberi (SETFA)),LOLPE POST percentage damage caused to the plant (five-point scale) (Lolium perenne (LOLPE)),LOLPE PRE percentage damage caused to the plant (five-point scale) (Lolium perenne (LOLPE)),ECHCG POST percentage damage caused to the plant (five-point scale) [2],ECHCG PRE percentage damage caused to the plant (five-point scale) [2]
CCc1cc(-c2ccc(C#N)cn2)cc(Cl)c1C1C(=O)CC2(CCN(C(=O)C3CC3)CC2)CC1=O [Compound A53],5 (5=80-100%),5 (5=80-100%),5 (5=80-100%),5 (5=80-100%),5 (5=80-100%),5 (5=80-100%),5 (5=80-100%),5 (5=80-100%),5 (5=80-100%),5 (5=80-100%)
CC#Cc1cc(C)c(C2C(=O)CC3(CCN(C(C)=O)CC3)CC2=O)c(Cl)c1 [Compound A55],5 (5=80-100%),5 (5=80-100%),5 (5=80-100%),5 (5=80-100%),5 (5=80-100%),5 (5=80-100%),5 (5=80-100%),5 (5=80-100%),5 (5=80-100%),5 (5=80-100%)
CC(=O)N1CCC2(CC1)CC(=O)C(c1c(C)cc(-c3ccc(C#N)cn3)cc1Cl)C(=O)C2 [Compound A56],5 (5=80-100%),3 (3=40-59%),5 (5=80-100%),3 (3=40-59%),5 (5=80-100%),5 (5=80-100%),5 (5=80-100%),5 (5=80-100%),5 (5=80-100%),4 (4=60-79%)
Cc1cc(-c2ccc(C#N)cn2)cc(Cl)c1C1C(=O)CC2(CCN(C(=O)C3CC3)CC2)CC1=O [Compound A57],5 (5=80-100%),5 (5=80-100%),5 (5=80-100%),5 (5=80-100%),5 (5=80-100%),5 (5=80-100%),5 (5=80-100%),5 (5=80-100%),5 (5=80-100%),5 (5=80-100%)
Cc1cc(-c2ccc(F)cn2)cc(Cl)c1C1C(=O)CC2(CCN(C(=O)C3CC3)CC2)CC1=O [Compound A58],5 (5=80-100%),5 (5=80-100%),5 (5=80-100%),5 (5=80-100%),5 (5=80-100%),5 (5=80-100%),5 (5=80-100%),5 (5=80-100%),5 (5=80-100%),5 (5=80-100%)
